Laboratory results as given in patent publication US20240199546A1, “INHIBITORS OF SOLUTE CARRIER FAMILY 6A MEMBER 19 (SLC6A19) AND METHODS OF USE THEREOF” (Maze Therapeutics, Inc., priority 2022, published 2024).

The molecules below were run against T1, human SLC6A19 and TMEM27 (Homo sapiens, UniProt Q695T7) (assay: Radiolabelled (3H) leucine uptake in CHO cells with doxycycline-inducible expression of human SLC6A19 and TMEM27 (Example B-1)). Conditions: CHO cells with doxycycline-inducible expression of human SLC6A19 and TMEM27, read-out: SLC6A19_Radioligand Uptake Assay IC50.
T1 construct: expressed in transfected cells
T1 sequence (Q695T7 1-634): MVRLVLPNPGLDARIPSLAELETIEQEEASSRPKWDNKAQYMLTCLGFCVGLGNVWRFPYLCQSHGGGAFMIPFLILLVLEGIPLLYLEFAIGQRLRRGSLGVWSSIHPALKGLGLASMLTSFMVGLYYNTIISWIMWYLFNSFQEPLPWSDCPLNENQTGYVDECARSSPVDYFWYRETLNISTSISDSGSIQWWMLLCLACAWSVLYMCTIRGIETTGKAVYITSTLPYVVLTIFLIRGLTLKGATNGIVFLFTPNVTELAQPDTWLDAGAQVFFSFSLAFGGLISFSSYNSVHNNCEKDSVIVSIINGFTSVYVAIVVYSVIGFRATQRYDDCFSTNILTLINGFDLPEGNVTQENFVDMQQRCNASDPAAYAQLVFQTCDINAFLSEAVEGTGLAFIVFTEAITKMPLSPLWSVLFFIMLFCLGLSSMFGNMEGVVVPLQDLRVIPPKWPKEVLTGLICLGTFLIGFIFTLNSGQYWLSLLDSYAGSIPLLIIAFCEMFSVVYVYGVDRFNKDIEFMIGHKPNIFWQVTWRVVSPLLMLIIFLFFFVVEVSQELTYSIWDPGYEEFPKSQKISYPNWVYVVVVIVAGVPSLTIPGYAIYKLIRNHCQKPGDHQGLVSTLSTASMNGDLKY
T1 sequence (Q9HBJ8 15-222 partner): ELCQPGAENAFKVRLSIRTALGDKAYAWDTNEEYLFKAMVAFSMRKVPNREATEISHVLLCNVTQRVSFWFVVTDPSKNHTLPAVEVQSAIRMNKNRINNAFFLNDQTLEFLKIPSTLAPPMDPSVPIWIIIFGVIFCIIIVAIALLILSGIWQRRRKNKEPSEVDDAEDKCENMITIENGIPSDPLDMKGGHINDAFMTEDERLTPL
Format: cell-based
Outline: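 CHO cells were induced with doxycycline for 18 h at 37 °C, washed in HBSS, then exposed to compounds for 1 h: 8-point, 3-fold dilutions in duplicate, 0.5% DMSO final. Uptake measured by scintillation counting after 2 h shaking. Activity normalized with positive control as 0% and DMSO as 100%.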
`CC(C)c1cc2cc(CNC(=O)C3(C)CC3)[nH]c2cc1OCc1cscn1` [Compound 186, N-((5-isopropyl-6-(thiazol-4-ylmethoxy)-1H-indol-2-yl)methyl)-1-methylcyclopropane-1-carboxamide] was tested, and the IC50 was 968 nM. `CC1(C(=O)NCc2cc3cc(Cl)c(OCc4ccc5cc[nH]c5c4)cc3[nH]2)CC1` [Compound 350, N-((6-((1H-indol-6-yl)methoxy)-5-chloro-1H-indol-2-yl)methyl)-1-methylcyclopropane-1-carboxamide] showed an IC50 of over 8380 nM. In the case of `[2H]C([2H])([2H])c1cc(COc2cc3[nH]c(CNC(=O)C4(C)CC4)cc3cc2Cl)no1` [Compound 663, N-((5-chloro-6-((5-(methyl-d3)isoxazol-3-yl)methoxy)-1H-indol-2-yl)methyl)-1-methylcyclopropane-1-carboxamide], the IC50 is reported as 134 nM. `O=C(NCc1cc2cc(OC(F)(F)F)c(OCc3cocn3)cc2[nH]1)N1CCC1` [Compound 480, N-((6-(oxazol-4-ylmethoxy)-5-(trifluoromethoxy)-1H-indol-2-yl)methyl)azetidine-1-carboxamide] was tested, and the IC50 was 372 nM. In the case of `Cc1cc(COc2cc3[nH]c(CNC(=O)[C@@H]4CCO4)cc3cc2Cl)on1` [Compound 276, (S)-N-((5-chloro-6-((3-methylisoxazol-5-yl)methoxy)-1H-indol-2-yl)methyl)oxetane-2-carboxamide], the IC50 is reported as 94 nM. In the case of `O=C(NCc1cc2cc(Cl)c(OCc3cscn3)cc2[nH]1)[C@@H]1C[C@H]1F` [Compound 543, (1S,2R)-N-((5-chloro-6-(thiazol-4-ylmethoxy)-1H-indol-2-yl)methyl)-2-fluorocyclopropane-1-carboxamide], the IC50 is reported as 145 nM. For `C[C@H]1CCN1C(=O)NCc1cc2cc(Cl)c(OCc3cscn3)cc2[nH]1` [Compound 360, (S)-N-((5-chloro-6-(thiazol-4-ylmethoxy)-1H-indol-2-yl)methyl)-2-methylazetidine-1-carboxamide], the IC50 was 432 nM. With `CN(C(=O)NCc1cc2cc(Cl)c(OCc3cscn3)cc2[nH]1)C1CC1` [Compound 359, 3-((5-chloro-6-(thiazol-4-ylmethoxy)-1H-indol-2-yl)methyl)-1-cyclopropyl-1-methylurea] the IC50 was 231 nM. With `O=C(NCc1cc2cc(Cl)c(OCc3cscn3)cc2[nH]1)C1(CO)CC1` [Compound 254, N-((5-chloro-6-(thiazol-4-ylmethoxy)-1H-indol-2-yl)methyl)-1-(hydroxymethyl)cyclopropane-1-carboxamide] the IC50 was 294 nM. `Cc1cc(COc2cc3[nH]c(CNC(=O)C[C@@H]4CCOC4)cc3cc2Cl)on1` [Compound 289, (S)-N-((5-chloro-6-((3-methylisoxazol-5-yl)methoxy)-1H-indol-2-yl)methyl)-2-(tetrahydrofuran-3-yl)acetamide] was tested, and the IC50 was 2020 nM. In the case of `CC1(C(=O)NCc2cc3c(F)c(Cl)c(OCc4cscn4)cc3[nH]2)CC1` [Compound 17, N-((5-chloro-4-fluoro-6-(thiazol-4-ylmethoxy)-1H-indol-2-yl)methyl)-1-methylcyclopropane-1-carboxamide], the IC50 is reported as 362 nM. Work on `O=C(NCc1cc2ccc(OCc3ccon3)cc2[nH]1)N1CCOCC1` [Compound 199, N-((6-(isoxazol-3-ylmethoxy)-1H-indol-2-yl)methyl)morpholine-4-carboxamide] yielded an IC50 of 1370 nM. In the case of `Cc1coc(COc2cc3[nH]c(CNC(=O)C4(C)CC4)cc3cc2Cl)n1` [Compound 71, N-((5-chloro-6-((4-methyloxazol-2-yl)methoxy)-1H-indol-2-yl)methyl)-1-methylcyclopropane-1-carboxamide], the IC50 is reported as 111 nM. Work on `O=C(NCc1cc2cc(C3CC3)c(OCc3cscn3)cc2[nH]1)N1CCC1` [Compound 651, N-((5-cyclopropyl-6-(thiazol-4-ylmethoxy)-1H-indol-2-yl)methyl)azetidine-1-carboxamide] yielded an IC50 of 340 nM. `Cc1cc(COc2cc3[nH]c(CNC(=O)[C@H]4CCN4)cc3cc2Cl)on1` [Compound 616, (R)-N-((5-chloro-6-((3-methylisoxazol-5-yl)methoxy)-1H-indol-2-yl)methyl)azetidine-2-carboxamide] showed an IC50 of 2730 nM.
